One compound from patent US11542266B1, “Substituted piperidines as BTK inhibitors” (HAISCO PHARMACEUTICALS PTE. LTD., priority 2019, dated 2023) can be followed below.

The structures appear in SMILES notation.

The test system of one data set is Mino cells. The data set is described as follows: Inhibition of cell proliferation, Mino cells (Cell Viability Assay, 72 h). The note with it: Homo sapiens. It counts as cell-based, human. In outline:
(§1)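 RPMI1640 + 10% FBS cultures seeded at 20000/well (SU-DHL-4) or 5000/well (Mino, SU-DHL-6), exposed to compound dilutions in triplicate for 72 h at 37 °C, 5% CO2, DMSO vehicle control. Viability read by luminescent reagent; IC50 from dose-response and Max inhi. % = (1 − T72 treated/T72 vehicle)×100 at top concentration.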

The next data set concerns SU-DHL-4 cells. The data set is described as follows: Inhibition of cell proliferation, SU-DHL-4 cells (Cell Viability Assay, 72 h). The note with it: Homo sapiens. The data set is classed as cell-based, human. The method, boiled down: as §1
For the next data set, the system named is SU-DHL-6 cells. The data set is described as follows: Inhibition of cell proliferation, SU-DHL-6 cells (Cell Viability Assay, 72 h). The data set is classed as cell-based. The note with it: Homo sapiens. The method, boiled down:
as §1

In the next data set the test system is OCI-LY10 cells. The data set is described as follows: Inhibition of cell proliferation, OCI-LY10 cells (Cell Viability Assay, 72 h). It counts as cell-based. The conditions noted are these: Homo sapiens. The method, then: (§2) OCI-LY10 and TMD-8 cells, in the culture medium of RPMI1640+10% FBS, were cultured in an incubator at 37° C. under 5% CO2. Cells were plated in a 96-well plate. Specifically, OCI-LY10 cells were at 10000/well, and TMD-8 cells were at 8000/well, with 90 μL/well. These cells were cultured at 37° C. under 5% CO2 overnight. On the next day, 10 μL of the compounds at different concentrations were added to each well. There were 3 replicate wells for each concentration, and the last column, added with DMSO, was used as a vehicle control group. The cultures were continued for 72 hours at 37° C. under 5% CO2. After 72 hours, 50 μL of detection reagent (Cell Viability Assay, Promega, G7573) was added to each well, and the cultures were uniformly mixed for 2 minutes, and incubated at room temperature for 10 minutes. The fluorescence signal value was measured with an Envision2104 plate reader (PerkinElmer). The inhibition rate was calculated using formula (2), wherein RLUcompound was the readout of the drug treated group, RLUcontrol was the average value of the vehicle control group, and RLUblank was the average value of the cell-free wells. The IC50 value was calculated using GraphPad Prism software. IR (%)=(1−(RLUcompound-RLUblank)/(RLUcontrol-RLUblank))*100% formula (2)

For a further data set, the system named is TMD-8 cells. The data set is described as follows: Inhibition of cell proliferation, TMD-8 cells (Cell Viability Assay, 72 h). The data set is classed as cell-based. The conditions noted are these: Homo sapiens, TMD8. The method, then:
as §2

Data set [1] can be described thus: Pharmacokinetic experiment in rats (i.g. vehicle 0.5% MC). It counts as in vivo. The conditions noted are these: Sprague-Dawley (SD), rat, plasma, po, male SD rats. The method, boiled down: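 Male SD rats (200–250 g, 6–8 weeks, n=6 per compound) were dosed once i.v. or intragastrically after a 12–14 h fast and fed 4 h post-dose. Orbital blood was drawn into EDTA-K2 tubes at 0–24 h (from 5 min i.v., from 15 min oral). Plasma was quantified by LC-MS/MS for PK parameters and bioavailability.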

Data set [2] in a line: Pharmacokinetic experiment in mice. The data set is classed as in vivo. The note with it: mouse, plasma, male ICR mice. On the procedure:
Objective: In this experiment, a single dose of each test compound was administered to ICR mice intravenously and intragastrically, the concentrations of the test compound in plasma of mice were measured, and the pharmacokinetic characteristics and bioavailability of the test compound in mice were evaluated.
Experimental animals: Male ICR mice, 20-25 g, 6-8 weeks old, 24 mice/compound. The experimental animals were purchased from CHENGDU DOSSY EXPERIMENTAL ANIMALS CO., LTD.
Experimental method: On the day of the experiment, 24 ICR mice were randomly grouped according to their body weight. The animals were fasted with water available for 12 to 14 hours one day before the administration of a test compound, and were fed 4 hours after the administration.
Sampling: Before and after the administration, 0.06 ml of blood was taken from the orbit of the mice under isoflurane anesthesia, and placed in an EDTAK2 centrifuge tube. Centrifugation was carried out at 5000 rpm at 4° C. for 10 min and the plasma was collected.
Time points for plasma collection in G1 group: 0, 5 min, 15 min, 30 min, 1 h, 2 h, 4 h, 6 h, 8 h, and 24 h;
Time points for plasma collection in G2 group: 0, 15 min, 30 min, 1 h, 2 h, 4 h, 6 h, 8 h, and 24 h;
Before analysis and detection, all samples were stored at −80° C. The samples were analyzed quantitatively by LC-MS/MS.

The next data set deals with BTK protein (Mus musculus (Mouse), UniProt P35991). The experiment in a line: Detection of BTK protein degradation in spleen of mice. The conditions noted are these: po, 72 h, female ICR mice, 3 consecutive days of intragastric administration, read-out: DD50 value of compounds on BTK protein degradation in spleen of mice. It counts as in vivo. On the procedure: Female ICR mice, 6-8 weeks old, were purchased from BEIJING VITAL RIVER LABORATORY ANIMAL TECHNOLOGY CO., LTD, and the experiment was started after 3 days of adaptation. After 3 consecutive days of intragastric administration of different doses of the compound, the spleen of mice was taken, the spleen cells were collected, and RIPA lysis buffer (Beyotime, Cat. P0013B) was added. The cells were lysed on ice for 15 minutes, and centrifuged at 12000 rpm at 4° C. for 10 minutes. The protein sample of the supernatant was collected, and the protein was quantified by using the BCA kit (Beyotime, Cat. P0009), and then the protein was diluted to 0.25 mg/mL. The expressions of BTK (CST, Cat. 8547S) and the internal reference β-actin (CST, Cat. 3700S) were detected using a fully automated western blot quantitative analyzer (Proteinsimple). The expression level of BTK relative to the internal reference was calculated using Compass software, and the DD50 value was calculated using Origen9.2 software according to formula (4). Specifically, the BTKadministration denoted the expression level of BTK in administration groups at different doses, and the BTKvehicle denoted the expression level of BTK in the vehicle control group. BTK %=BTKadministration/BTKvehicle×100 formula (4)
BTK protein, sequence (P35991 whole entry): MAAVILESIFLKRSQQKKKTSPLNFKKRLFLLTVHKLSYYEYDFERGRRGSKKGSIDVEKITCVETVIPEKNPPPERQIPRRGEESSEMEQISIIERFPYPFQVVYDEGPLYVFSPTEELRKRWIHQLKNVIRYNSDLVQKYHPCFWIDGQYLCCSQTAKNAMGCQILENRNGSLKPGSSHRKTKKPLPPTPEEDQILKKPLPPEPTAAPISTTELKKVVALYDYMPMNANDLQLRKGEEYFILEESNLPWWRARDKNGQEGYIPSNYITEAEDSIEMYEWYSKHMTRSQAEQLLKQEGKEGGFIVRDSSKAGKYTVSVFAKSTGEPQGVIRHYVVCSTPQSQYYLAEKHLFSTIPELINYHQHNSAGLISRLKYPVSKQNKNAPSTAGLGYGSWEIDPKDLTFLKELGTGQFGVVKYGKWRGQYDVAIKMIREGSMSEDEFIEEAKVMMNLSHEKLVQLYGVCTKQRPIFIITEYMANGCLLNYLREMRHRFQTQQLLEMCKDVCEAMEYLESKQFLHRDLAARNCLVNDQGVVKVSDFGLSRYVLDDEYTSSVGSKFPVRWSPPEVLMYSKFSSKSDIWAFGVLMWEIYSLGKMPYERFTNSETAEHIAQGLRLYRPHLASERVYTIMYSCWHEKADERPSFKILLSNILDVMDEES

As a reminder, the IC50 is the concentration that inhibits the measured activity by half. A higher IC50 goes with weaker potency in that assay. One may read the bioavailability as dose-corrected exposure relative to a reference, in per cent. Read a low bioavailability as little systemic uptake. In the case of `Nc1ncnc2c1c(-c1ccc(Oc3ccccc3)cc1)nn2C1CCN(C2CN(C3CN(c4ccc5c(c4)C(=O)N(C4CCC(=O)NC4=O)C5=O)C3)C2)CC1` (stereo not shown) [Compound 17, 5-[3-[3-[4-[4-amino-3-(4-phenoxyphenyl)pyrazolo[3,4-d]pyrimidin-1-yl]-1-piperidyl]azetidin-1-yl]azetidin-1-yl]-2-(2,6-dioxo-3-piperidyl)isoindoline-1,3-dione], the half-maximal inhibitory concentration (IC50) stood at 0.02 µM in the data set on Mino cells; 0.367 µM in the data set with SU-DHL-4 cells; 0.744 µM in the data set on SU-DHL-6 cells; 0.005 µM in the data set with OCI-LY10 cells; 0.022 µM with TMD-8 cells. Moreover, the bioavailability is 6.57 ± 0.77% in data set [1] (i.g. 20 mg/kg (0.5% MC) vs i.v. 5 mg/kg) and 10.8% in data set [2] (oral, i.g. 10 mg/kg vs i.v. 5 mg/kg). Besides, the AUC(0-t) is 2.34 ± 0.274 µg·h/mL in data set [1] (i.g. 20 mg/kg, vehicle 0.5% MC, read-out: AUC0-t) and 2.43 µg·h/mL in data set [2] (po, i.g. 10 mg/kg, vehicle 0.5% MC). Besides, on BTK protein, the ED50 amounted to 3.8 mg/kg.
